Experimental data as given in US20220324862A1, “PYRIDOPYRIMIDINONE COMPOUNDS” (Acerand Therapeutics (USA) Limited, priority 2021, published 2022).

Tests used:
NCI-H1975 cells = assay: 3D cell proliferation assay; assay type: cell-based; conditions: Homo sapiens, ultra low attachment plate, 96 hours, 3D CTG
Protocol: This assay supports the molecular mode of action of compounds. Low IC50 values are indicative of high potency of the SOS1 inhibition. […] This supports the molecular mode of action of the SOS1 inhibitors as selectively targeting cancer cells dependent on receptor tyrosine kinase-RAS/SOS1-family protein function. Cell proliferation assays were performed in three-dimensional (3D) anchorage-independent conditions in 96 well ultra-low attachment plate with the following human cell lines:
NCI-H1975: human non-small cell lung cancer (NSCLC) with wild type KRAS and EGFR L858R/T790M mutation;
Cell lines were purchased from the American Type Culture Collection (ATCC), NCI, or European Collection of Authenticated Cell Cultures (ECACC). All cell lines were maintained in RPMI-1640 or DMEM with 10% heat inactivated fetal bovine serum.
Cells growing in log phase were detached with Gibco™ TrypLE™ Express Enzyme and plated in 96 well ultra low attachment plate at 15000 to 20000 cells/well in 100 μl of media. After overnight incubation at 37° C. and 5% CO2, the cells were treated with compounds (50 μL/well) at the final concentrations spanning 1 nM to 20 μM. Cells were incubated at 37° C., 5% CO2 and 95% humidity incubator for 96 hours. At the end of incubation, a 3D CTG reagent from Promega was added to each well according to vendors recommendation and mixed for 10 minutes in dark. The luminescence signals were determined using Biotek plate reader. The data was fitted using a sigmoidal curve analysis program (GraphPAD Prism) with variable hill slope.

[1] = system: cellular pERK in NCI-H1975 cells (EGFR/L858R-T790M); assay: pERK Potency Assay; assay type: cell-based; conditions: Homo sapiens, 1 hour incubation, Western blot, read-out: IC50 value, cellular pERK level
Text: The purpose of this assay is to measure the ability of test compounds to inhibit SOS1 function in cells. SOS1 activates RAS proteins by catalyzing the conversion of RAS-GDP to RAS-GTP in response to receptor tyrosine kinase activation. Activation of RAS induces a sequence of cellular signaling events that results in increased phosphorylation of ERK at Threonine 202 and Tyrosine 204 (pERK). The procedure described below measured the level of cellular pERK in response to test compounds in NCI-H1975 cells (EGFR/L858R-T790M).
NCI-H1975 cells were grown and maintained using media and procedures recommended by the ATCC. On the day prior to compound addition, cells were plated in 24-well cell culture plates (0.9 ml/well) and grown overnight in a 37° C., 5% CO2 incubator. Test compounds were prepared with 3-fold serial dilutions in DMSO, with a top concentration of 10 mM. On the day of the assay, 100 uL of each test compound diluted at 1:100 in media was added to each well of cell culture plate with final concentrations of the compound spanning 0.5 nM to 10 uM. After the compound was added, the cells were incubated for 1 hour at 37° C., 5% CO2. Following incubation, culture medium was removed, and the cells were washed once with phosphate buffered saline and lysed with lysis buffer (20 mM Tris-HCl, pH 7.5, 150 mM NaCl, 1 mM EDTA, 1 mM EGTA, 0.8% NP-40 plus 2× protease and phosphatase inhibitors). Cellular pERK level was determined using the Western blot analysis and quantified with Liqor software. Signal from Western blot was plotted and IC50 values were determined by fitting a 4-parameter sigmoidal concentration response model.

SMILES | IC50 (NCI-H1975 cells) | IC50 [1]
C#C[C@@H](Nc1nc(C)nc2cc(=O)n(C3CCOCC3)cc12)c1cccc(C(F)(F)F)c1C [Compound 4, (R)-2-methyl-4-((1-(2-methyl-3-(trifluoromethyl)phenyl)prop-2-yn-1-yl)amino)-6-(tetrahydro-2H-pyran-4-yl)pyrido[4,3-d]pyrimidin-7(6H)-one] | 0.1 to 0.5 µM | < 0.1 µM
C#C[C@@H](Nc1nc(C)nc2cc(=O)n(C3(C(F)F)CC3)cc12)c1cccc(C(F)(F)F)c1C [Compound 9, (R)-6-(1-(difluoromethyl)cyclopropyl)-2-methyl-4-((1-(2-methyl-3-(trifluoromethyl)phenyl)prop-2-yn-1-yl)amino)pyrido[4,3-d]pyrimidin-7(6H)-one] | < 0.1 µM | 0.1 to 0.5 µM
C#C[C@@H](Nc1ncnc2c1cc(C1(O)CCN(C(C)=O)C1)c(=O)n2C)c1cccc(C(F)F)c1F (stereo partly drawn) [Compound 43, 6-(1-acetyl-3-hydroxypyrrolidin-3-yl)-4-{[(1R)-1-[3-(difluoromethyl)-2-fluorophenyl]prop-2-yn-1-yl]amino}-8-methyl-7H,8H-pyrido[2,3-d]pyrimidin-7-one] | 0.1 to 0.5 µM | < 0.1 µM
C#C[C@@H](Nc1ncnc2c1cc(C1(O)CCN(C(C)=O)CC1)c(=O)n2C)c1cccc(C(F)F)c1F [Compound 46, 6-(1-acetyl-4-hydroxypiperidin-4-yl)-4-{[(1R)-1-[3-(difluoromethyl)-2-fluorophenyl]prop-2-yn-1-yl]amino}-8-methyl-7H,8H-pyrido[2,3-d]pyrimidin-7-one] | < 0.1 µM | < 0.1 µM
C#C[C@@H](Nc1ncnc2c1cc(C1(OC)CCN(C(C)=O)CC1)c(=O)n2C)c1cccc(C(F)F)c1F [Compound 48, (R)-6-(1-acetyl-4-methoxypiperidin-4-yl)-4-((1-(3-(difluoromethyl)-2-fluorophenyl)prop-2-yn-1-yl)amino)-8-methylpyrido[2,3-d]pyrimidin-7(8H)-one] | < 0.1 µM | < 0.1 µM
C#C[C@@H](Nc1ncnc2c1cc(C1(OC)CCN(C(C)=O)C1)c(=O)n2C)c1cccc(C(F)F)c1F (stereo partly drawn) [Compound 49, 6-(1-acetyl-3-methoxypyrrolidin-3-yl)-4-{[(1R)-1-[3-(difluoromethyl)-2-fluorophenyl]prop-2-yn-1-yl]amino}-8-methyl-7H,8H-pyrido[2,3-d]pyrimidin-7-one] | < 0.1 µM | < 0.1 µM
C#C[C@@H](Nc1nc(C)nc2c1cc(C1(O)CCN(C(C)=O)CC1)c(=O)n2C)c1cccc(C(F)(F)F)c1C [Compound 54, 6-(1-acetyl-4-hydroxypiperidin-4-yl)-2,8-dimethyl-4-{[(1R)-1-[2-methyl-3-(trifluoromethyl)phenyl]prop-2-yn-1-yl]amino}-7H,8H-pyrido[2,3-d]pyrimidin-7-one] | < 0.1 µM | < 0.1 µM
C#C[C@@H](Nc1nc(C)nc2c1cc(C1(OC)CCN(C(C)=O)CC1)c(=O)n2C)c1cccc(C(F)(F)F)c1C [Compound 55, 6-(1-acetyl-4-methoxypiperidin-4-yl)-2,8-dimethyl-4-{[(1R)-1-[2-methyl-3-(trifluoromethyl)phenyl]prop-2-yn-1-yl]amino}-7H,8H-pyrido[2,3-d]pyrimidin-7-one] | < 0.1 µM | < 0.1 µM
C#C[C@@H](Nc1nc(C)nc2c1cc(C1(F)CCN(C(C)=O)CC1)c(=O)n2C)c1cccc(C(F)(F)F)c1C [Compound 56, 6-(1-acetyl-4-fluoropiperidin-4-yl)-2,8-dimethyl-4-{[(1R)-1-[2-methyl-3-(trifluoromethyl)phenyl]prop-2-yn-1-yl]amino}-7H,8H-pyrido[2,3-d]pyrimidin-7-one] | < 0.1 µM | < 0.1 µM
C#C[C@@H](Nc1ncnc2c1cc(C1(NC(C)=O)CCN(C(C)=O)CC1)c(=O)n2C)c1cccc(C(F)(F)F)c1C [Compound 57, (R)-N-(1-acetyl-4-(8-methy-4-((1-(2-methyl-3-(trifluoromethyl)phenyl)prop-2-yn-1-yl)amino)-7-oxo-7,8-dihydropyrido[2,3-d]pyrimidin-6-yl)piperidin-4-yl)acetamide] | < 0.1 µM | < 0.1 µM
C#C[C@@H](Nc1ncnc2c1cc(C1(NC(C)=O)CCOCC1)c(=O)n2C)c1cccc(C(F)(F)F)c1C [Compound 58, (R)-N-(4-(8-methy-4-((1-(2-methyl-3-(trifluoromethyl)phenyl)prop-2-yn-1-yl}amino)-7-oxo-7,8-dihydropyrido[2,3-d]pyrimidin-6-yl)tetrahydro-2H-pyran-4-yl)acetamide] | < 0.1 µM | < 0.1 µM
